# Experimental data published in article PMC5618656, “Interference of Paraben Compounds with Estrogen Metabolism by Inhibition of 17β-Hydroxysteroid Dehydrogenases” (International Journal of Molecular Sciences, 2017).
# Where two headings read alike, the source gives them in different places.
# Legend:
# [1] = biological target: T1, 17β-hydroxysteroid dehydrogenase 1 (17β-HSD1) (Homo sapiens, UniProt P14061); test: radiolabeled estrone conversion in lysates of transfected HEK-293 cells, single concentration […]; assay type: cell-based; conditions: HEK293
# T1 construct: gene HSD17B1
# T1 sequence (P14061 2-328): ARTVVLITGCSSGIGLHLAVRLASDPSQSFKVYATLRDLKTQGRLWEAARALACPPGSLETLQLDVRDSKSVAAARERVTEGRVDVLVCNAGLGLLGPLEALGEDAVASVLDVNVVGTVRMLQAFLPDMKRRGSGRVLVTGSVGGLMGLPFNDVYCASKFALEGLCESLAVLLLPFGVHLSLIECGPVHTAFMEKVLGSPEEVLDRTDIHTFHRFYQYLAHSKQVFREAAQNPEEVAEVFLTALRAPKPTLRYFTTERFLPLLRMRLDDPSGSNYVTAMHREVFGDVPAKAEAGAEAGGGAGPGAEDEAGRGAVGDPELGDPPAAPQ
# [2] = biological target: T2, 17β-hydroxysteroid dehydrogenase 2 (17β-HSD2) (Homo sapiens, UniProt P37059); test: biochemical; set-up: species or system HEK-293 (transiently transfected); Radiolabeled estradiol to estrone conversion (200 nM, NAD+) in lysates of 17β-HSD2-transfected cells; TLC and scintillation counting
# T2 construct: gene HSD17B2
# T2 sequence (P37059 1-387): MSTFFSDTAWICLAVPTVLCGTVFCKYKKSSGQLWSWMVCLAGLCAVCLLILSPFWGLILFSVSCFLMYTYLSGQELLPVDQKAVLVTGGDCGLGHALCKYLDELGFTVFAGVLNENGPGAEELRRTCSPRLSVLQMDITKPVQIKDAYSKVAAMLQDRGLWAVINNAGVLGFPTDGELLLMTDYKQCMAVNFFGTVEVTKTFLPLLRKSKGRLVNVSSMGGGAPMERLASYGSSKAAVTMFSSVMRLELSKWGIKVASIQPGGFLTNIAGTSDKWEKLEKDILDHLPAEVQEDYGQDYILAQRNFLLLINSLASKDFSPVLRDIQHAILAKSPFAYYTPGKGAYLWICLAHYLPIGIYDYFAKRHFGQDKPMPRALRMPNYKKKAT
# Experimental: Lysate activity assays were performed as previously described. Briefly, HEK-293 cells (ATCC) were transiently transfected with expression constructs for human 17β-HSD1 or 17β-HSD2 using the calcium phosphate precipitation method. Lysates of HEK-293 cells expressing 17β-HSD1 or 17β-HSD2 were incubated at 37 °C for 10 min in TS2 buffer (100 mM NaCl, 1 mM EDTA, 1 mM EGTA, 250 mM sucrose, 1 mM MgCl2, 20 mM Tris-HCl, pH 7.4), containing either the inhibitor at the respective concentration or solvent (0.2% DMSO). 17β-HSD1 activity was determined in the presence of 200 nM estrone, including 50 nCi of [2,4,6,7-^3H]-estrone and 500 μM NADPH. Whereas, the 17β-HSD2 activity was performed in the presence of 200 nM estrone, including 50 nCi of [2,4,6,7-^3H]-estradiol and 500 μM NAD+.  Figure 4 (A) Inhibition of estrone formation by parabens in human embryonic kidney (HEK-293) cell lysates expressing human 17β-HSD2. The conversion of estradiol to estrone was measured in lysates of HEK-293 cells transiently transfected with 17β-HSD2 in the presence of 200 nM radiolabeled estradiol and parabens or paraben-like compounds at a final concentration of 20 µM. 17β-HSD2 inhibitor BM13 served as positive control (compound 22 in [18]). Statistical analyses were performed using one-way analysis of variance (ANOVA) test followed by a Dunnett post-hoc test. […] (B) Concentration-dependent inhibition of 17β-HSD2 by ethylparaben and ethyl vanillate. Results represent the mean ± standard deviation (SD) of three independent measurements. To determine 17β-HSD1 activity in COV434 cells, cells were seeded (50,000) into 96-well plates and incubated for 90 min with 200 nM estrone, including 50 nCi of [2,4,6,7-^3H]-estrone in serum-free charcoal treated media containing either the inhibitor at the respective concentration or solvent (0.1% DMSO). Both activity essays were stopped by adding a 1:1 ratio of 2 mM unlabeled estrone and estradiol in methanol. Radiolabeled steroids were obtained from Perkin-Elmer (Boston, MA, USA) whereas normal steroids and cofactors were purchased from Sigma-Aldrich. Estrogens were separated by thin layer chromatography and samples were analyzed using scintillation counting. All data were collected from at least three independent measurements.
# [3] = biological target: T2, 17β-hydroxysteroid dehydrogenase 2 (17β-HSD2); test: radiolabeled estradiol to estrone conversion in lysates of HEK-293 cells transfected with human […]β-HSD2; assay type: biochemical
# [4] = biological target: T1, 17β-hydroxysteroid dehydrogenase 1 (17β-HSD1); test: biochemical; set-up: species or system HEK-293 (transiently transfected); Radiolabeled estrone to estradiol conversion (200 nM, NADPH) in lysates of 17β-HSD1-transfected cells; TLC and scintillation counting
# Experimental: Lysate activity assays were performed as previously described. Briefly, HEK-293 cells (ATCC) were transiently transfected with expression constructs for human 17β-HSD1 or 17β-HSD2 using the calcium phosphate precipitation method. Lysates of HEK-293 cells expressing 17β-HSD1 or 17β-HSD2 were incubated at 37 °C for 10 min in TS2 buffer (100 mM NaCl, 1 mM EDTA, 1 mM EGTA, 250 mM sucrose, 1 mM MgCl2, 20 mM Tris-HCl, pH 7.4), containing either the inhibitor at the respective concentration or solvent (0.2% DMSO). 17β-HSD1 activity was determined in the presence of 200 nM estrone, including 50 nCi of [2,4,6,7-^3H]-estrone and 500 μM NADPH. Whereas, the 17β-HSD2 activity was performed in the presence of 200 nM estrone, including 50 nCi of [2,4,6,7-^3H]-estradiol and 500 μM NAD+.  Figure 6 (A) Inhibition of 17β-HSD1 activity by parabens. 17β-HSD1 activity was measured in lysates of transiently-transfected HEK-293 cells, using DMSO as a negative, and apigenin as a positive, control. Statistical analyses were performed using one-way ANOVA followed by a Dunnett post-hoc test. […] (B) Concentration-dependent inhibition of 17β-HSD1 by [compound left out]- and heptylparaben. The conversion of estrone to estradiol was measured in lysates of HEK-293 cells transfected with 17β-HSD1 and (C) in intact human COV434 granulosa cells endogenously expressing 17β-HSD1. Results represent the mean ± SD of three independent experiments. To determine 17β-HSD1 activity in COV434 cells, cells were seeded (50,000) into 96-well plates and incubated for 90 min with 200 nM estrone, including 50 nCi of [2,4,6,7-^3H]-estrone in serum-free charcoal treated media containing either the inhibitor at the respective concentration or solvent (0.1% DMSO). Both activity essays were stopped by adding a 1:1 ratio of 2 mM unlabeled estrone and estradiol in methanol. Radiolabeled steroids were obtained from Perkin-Elmer (Boston, MA, USA) whereas normal steroids and cofactors were purchased from Sigma-Aldrich. Estrogens were separated by thin layer chromatography and samples were analyzed using scintillation counting. All data were collected from at least three independent measurements.
# [5] = biological target: T2, 17β-hydroxysteroid dehydrogenase 2 (17β-HSD2); test: radiolabeled estradiol conversion in lysates of transfected HEK-293 cells, single concentration […]; assay type: cell-based; conditions: HEK293
# [6] = biological target: T1, 17β-hydroxysteroid dehydrogenase 1 (17β-HSD1); test: radiolabeled estrone to estradiol conversion in lysates of transfected HEK-293 cells; also intact COV434 cells (IC50 […]); assay type: biochemical
# [7] = biological target: T2, 17β-hydroxysteroid dehydrogenase 2 (17β-HSD2); test: radiolabeled estradiol conversion in lysates of transfected HEK-293 cells at […]; also significant at […]; assay type: cell-based; conditions: HEK293
# [8] = biological target: T1, 17β-hydroxysteroid dehydrogenase 1 (17β-HSD1); test: radiolabeled estrone to estradiol conversion in lysates of transfected HEK-293 cells; also intact COV434 cells (IC50 […]); assay type: biochemical; remark: listed apart in the source
inhibition at 20 µM [2] [%],inhibition at 20 µM [4] [%],SMILES,further results
53 ± 7,–,CC(C)COC(=O)c1ccc(O)cc1 [isobutylparaben],inhibition at 20 µM [1]: 65%
74 ± 4,7 ± 6,"CCOC(=O)c1ccc(O)cc1 [2-P, ethylparaben]",IC50 [3]: 4.6 µM
–,–,CCOC(=O)c1ccc(O)c(OC)c1 [ethyl vanillate],IC50 [3]: 1.3 µM
0,7 ± 11,O=C(O)c1ccc(O)cc1 [p-hydroxybenzoic acid],–
–,–,O=C(OCc1ccccc1)c1ccc(O)cc1 [benzylparaben],inhibition at 20 µM [5]: 64%; inhibition at 20 µM [1]: 67%
37 ± 6,37 ± 5,CCCOC(=O)c1ccc(O)cc1 [propylparaben],–
30 ± 7,52 ± 10,CCCCOC(=O)c1ccc(O)cc1 [butylparaben],–
–,80 ± 5,"CCCCCCOC(=O)c1ccc(O)cc1 [6-P, hexylparaben]",IC50 [6]: 2.6 µM; inhibition at 20 µM [7]: 58%
50 ± 6,0,COC(=O)c1ccc(O)cc1 [methylparaben],–
60 ± 1,32 ± 9,CC(C)OC(=O)c1ccc(O)cc1 [isopropylparaben],–
–,83 ± 6,CCCCCCCOC(=O)c1ccc(O)cc1 [heptylparaben],inhibition at 20 µM [5]: 76%; IC50 [8]: 1.8 µM
–,35 ± 1,O=C(Oc1ccccc1)c1ccc(O)cc1 [phenylparaben],inhibition at 20 µM [5]: 64%
